{"source": "patent US9034906B2", "about": "“EP4 agonist” (Asahi Glass Company, Limited, priority 2008, dated 2015)", "key": {"[1]": {"assay": "In vitro metabolic stability: NADPH-independent β oxidation reaction in rat liver mitochondria fraction", "type": "in vitro ADME", "settings": "37° C., 30 min, tested as isomer mixtures, average±SD of 3 experiments", "protocol": "A mixture of the compound F and compound J of the present invention described in Table 1 (F:J=52:41, synthesized in Example 14), and a mixture of compounds wherein the tetrazole groups at C-1 of compound F and compound J are respectively substituted by carboxylic acid (referred to as carboxylate form, F:J=54:34, synthesized in Example 15) were tested.\nFirst, a mitochondria fraction was prepared from the rat liver according to the following Reference A. Then, in reference to the method of […] et al. described in the following References B and C, an NADPH-independent β oxidation reaction was studied. The reaction was carried out at 37° C. for 30 min, and stopped with a methanol solution containing a suitable internal standard substance. Each compound was quantified by the internal standard method using a high performance liquid chromatography mass spectrometry apparatus (LC-MS/MS). The compound residual ratio after metabolic reaction of compounds F, J and each carboxylate form thereof in rat mitochondria fraction is shown in the following Table 2 in average±standard deviation of 3 experiments."}, "T cell transfer colitis": {"tested_on": "T cell transfer colitis", "assay": "CD4+CD25- T cell transfer colitis model in mice", "type": "in vivo, mouse", "settings": "C.B-17/Icr-scid mice, oral 1 mg/kg once a day", "from_the_text": "The effect on Crohn's disease, another type of inflammatory bowel disease, was studied. T cell transfer model is well known as a Crohn's disease model, which develops chronic […] or enteritis (see: References F, G, H). In addition, it can also be regarded as an animal model of intestinal Behcet's disease or simple ulcer, suffering from similar intestinal ulcer accompanied by activation of T cells (see: References I, J).\nFemale BALB/cA Jcl mice, 6 weeks old, body weight 19-23 g (CLEA Japan, Inc.) and female C.B-17/Icr-scid mice (6 weeks old, CLEA Japan, Inc.) were purchased, acclimated for 1 week and used for the study.\nAfter laparotomy under ether anesthesia, BALB/cA Jcl mice were exsanguinated to death through the abdominal aorta and caudal vena cava, and the spleen was isolated. Splenocytes were prepared from the spleen and then CD4^+CD25^− T cells were prepared with a CD4^+ T cell Isolation Kit (No. 130-090-860, Milky Biotech Co., Ltd.) and CD25-Biotin antibody (No. 130-092-569, Milky Biotech Co., Ltd.). The cells were separated using the autoMACS Separator (Milky Biotech Co., Ltd.). The separated CD4^+CD25^− T cells were suspended in physiological phosphate buffer solution, and 2.5×10^5 cells per animal were intraperitoneally administered to C.B-17/Icr-scid mice to induce colitis.\nOne mg/kg of compound F or prednisolone was initially administered at 5 hr before transfer of CD4^+CD25^− T cells, and orally administered thereafter once a day, daily, for 20 days. To the control group was orally administered a solvent (1 vol % ethanol solution) at 10 mL/kg. A clinical endpoint was the sum of stool consistency score (0-5), fecal occult blood score (0-4) and body weight decrease score (0-5), termed as the Disease Activity Index score (hereinafter to be abbreviated as DAI score: highest score 14). The stool consistency score was graded for the hardness of stool as normal (0), slightly loose (1), somewhat loose (2), loose (3), considerably loose (4) and diarrhea (5). The fecal occult blood score was evaluated in the same manner as in Example 23. The body weight decrease score was graded for the changes in the body weight as increase (0), decrease of less than 3% (1), decrease of not less than 3% and less than 6% (2), decrease of not less than 6% and less than 9% (3), decrease of not less than 9% and less than 12% (4), and decrease of not less than 12% (5). Eight to 10 mice were used for each group and the results were expressed as average."}, "[2]": {"assay": "Effect on blood pressure and heart rate in mice", "type": "in vivo, mouse", "settings": "ICR mice, intravenous 0.01 mg/kg, isoflurane anesthesia", "protocol": "Male ICR mice (5 weeks old, Japan SLC) were purchased, acclimated for 6 days and used for the test. The animals were treated and measured under isoflurane inhalation anesthesia (anesthesia introduced at 2.5%, maintained at 1.8-2.1%), while body temperature was kept at 37° C. with a Heat Controller (ATC-402, Unique Medical Co., Ltd.). A catheter for administration of test compounds was inserted into the left femoral vein, and another catheter was inserted into the right femoral artery and connected to a pressure transducer to record each parameter of hemodynamics.\nCompound F, the carboxylate form of compound F and BPS were intravenously administered at a dose of 0.01 mg/5 mL/kg, and the effect on the mean blood pressure and heart rate was evaluated with computer software for the analysis of hemodynamics (Fluclet, Dainippon Sumitomo Pharma Co., Ltd.). To the control group was intravenously administered a solvent (1.2% ethanol solution) at 5 mL/kg in the same manner. The results are expressed as a ratio of change in each parameter before and after the drug administration. Three to 6 animals were used for each group, and the results were expressed as average±standard deviation."}, "[3]": {"tested_on": "dextran sodium sulfate-induced colitis", "assay": "Remission/relapse model of dextran sodium sulfate-induced colitis in mice, therapeutic", "type": "in vivo, mouse", "settings": "compound F 1 mg/kg, SASP 100 mg/kg, oral once a day for 50 days", "from_the_text": "Next, therapeutic effect of compound F on colitis was studied in a chronic model. Female BALB/c mice, 6 weeks old, body weight about 20 g (Japan SLC) were purchased, acclimated for 1 week and used for the study. The mice were divided into a colitis induction group and a normal group. The colitis induction group was allowed to freely drink a 2.6 w/v % DSS (MP Biochemicals, M.W. 36,000-50,000, Lot No. 4556J) solution to induce colitis. On day 8 when the stool score (defined in Example 23) of the colitis induction group reached about 4.5, the mice were subdivided into a control group, a compound F 1 mg/kg administration group and a salazosulfapyridine (SIGMA, Lot No. 085K1930, hereinafter to be abbreviated as SASP) 100 mg/kg administration group. Then the mice were allowed to freely drink distilled water instead of DSS solution for 9 days (remission period). After the grouping, the stool score was evaluated every 3-4 days. […]\nCompound F at a dose of 1 mg/kg and SASP at a dose of 100 mg/kg were orally administered once a day, daily, for 50 days from the initial remission period (day 8 from the start of 2.6 w/v % DSS drinking) to the fifth remission period (day 57 from the start of 2.6 w/v % DSS drinking). […] The remission ratio (%) was calculated as a ratio of mice in remission in each group. […]"}}, "data": [{"smiles": "Cc1cccc([C@@H](C)[C@H](O)/C=C/[C@@H]2[C@@H]3[C@H](C[C@H]2O)O/C(=C\\CCCc2nnn[nH]2)C3(F)F)c1", "note": "[Compound F, 4-[(Z)-(1S,5R,6R,7R)-6-[(1E,3R,4R)-3-hydroxy-4-(m-tolyl)-1-pentenyl]-7-hydroxy-2-oxa-4,4-difluoro-bicyclo[3.3.0]octan-3-ylidene]-1-(tetrazol-5-yl)butane]", "values": [{"measurement": "Residual ratio of parent compound after β-oxidation reaction", "setting": "[1]", "value": "91.6 ± 6.8", "unit": "%"}, {"measurement": "DAI score", "setting": "T cell transfer colitis", "value": "comprehensively superior to prednisolone"}, {"measurement": "Effect on body weight decrease score", "setting": "T cell transfer colitis", "value": "prevented the increase in the body weight decrease score almost completely"}, {"measurement": "Effect on fecal occult blood score", "setting": "T cell transfer colitis", "value": "suppressed the increases in both the stool consistency score and the fecal occult blood score by almost half"}, {"measurement": "Effect on stool consistency score", "setting": "T cell transfer colitis", "value": "suppressed the increases in both the stool consistency score and the fecal occult blood score by almost half"}, {"measurement": "Effect on heart rate", "setting": "[2]", "value": "little effect"}, {"measurement": "Maximum decrease ratio of mean blood pressure", "setting": "[2]", "value": 16.2, "unit": "%"}, {"measurement": "Effect on stool score in remission and relapse periods", "setting": "[3]", "value": "decreased the stool score early in the remission period, and suppressed an increase in the score in the relapse period"}]}]}
